From patent US20230151003A1, “COMPOUNDS AND METHODS OF USE” (Exelixis, Inc., priority 2020, published 2023)
pIC50: −log10 of the molar value. Where a name gives a salt, the structure may show the parent alone.

Legend:
KDR = KDR (Homo sapiens, UniProt P35968); assay: KDR autophosphorylation ELISA in HUVEC cells; assay type: cell-based; design: endogenous in cells; host or cells: HUVEC (Lonza #C2519A); details: Table 3 Cellular Activities, VEGF165-stimulated, phospho-KDR ELISA
How it was run: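 HUVEC, 24 h serum-free starvation; cpd 8-pt dilution, 0.3% DMSO final, 1 h; VEGF165 100 ng/mL, 5 min; cold lysis; phospho-KDR ELISA; IC50, 4PL.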

AXL = molecular target: T1, AXL (Homo sapiens, UniProt P30530); assay: AXL autophosphorylation ELISA in A-172 cells; assay type: cell-based; details: Table 3 Cellular Activities, Gas6-stimulated, phospho-AXL ELISA
T1 construct: endogenous in cells; host or cells: A-172 glioblastoma cells (ATCC #CRL-1620)
T1 sequence (P30530 26-894): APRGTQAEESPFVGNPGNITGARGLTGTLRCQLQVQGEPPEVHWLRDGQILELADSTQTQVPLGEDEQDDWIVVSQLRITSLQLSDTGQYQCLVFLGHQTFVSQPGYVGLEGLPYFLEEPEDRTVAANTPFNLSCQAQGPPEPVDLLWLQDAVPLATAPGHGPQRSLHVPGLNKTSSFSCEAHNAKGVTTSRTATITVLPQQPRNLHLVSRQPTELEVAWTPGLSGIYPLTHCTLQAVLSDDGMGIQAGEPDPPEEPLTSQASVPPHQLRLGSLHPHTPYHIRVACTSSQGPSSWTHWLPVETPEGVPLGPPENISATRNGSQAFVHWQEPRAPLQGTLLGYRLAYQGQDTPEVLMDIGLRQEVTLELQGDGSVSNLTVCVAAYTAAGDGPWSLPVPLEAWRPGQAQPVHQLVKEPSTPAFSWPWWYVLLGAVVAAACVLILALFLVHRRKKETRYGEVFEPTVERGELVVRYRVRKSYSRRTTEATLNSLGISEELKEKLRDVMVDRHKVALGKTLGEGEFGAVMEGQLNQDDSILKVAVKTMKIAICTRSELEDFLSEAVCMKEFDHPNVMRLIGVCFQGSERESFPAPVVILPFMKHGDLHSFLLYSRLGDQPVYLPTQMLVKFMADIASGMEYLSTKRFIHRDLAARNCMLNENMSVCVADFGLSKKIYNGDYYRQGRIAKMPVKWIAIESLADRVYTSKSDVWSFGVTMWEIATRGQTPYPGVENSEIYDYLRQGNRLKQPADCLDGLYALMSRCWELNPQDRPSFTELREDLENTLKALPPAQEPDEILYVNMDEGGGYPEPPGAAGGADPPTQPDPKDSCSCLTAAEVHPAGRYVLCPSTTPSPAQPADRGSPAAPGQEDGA
How it was run: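 Phospho-AXL in lysates measured by ELISA after Gas6 stimulation (1 μg/mL, 15 min) of A-172 cells pre-incubated 1 h with an 8-point compound dilution series in 0.3% DMSO after 24 h serum starvation. IC50 by 4-parameter logistic fit, with DMSO-treated and reference-inhibitor wells as 100% and 0% activity.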

Chain of KDR (P35968 20-1356): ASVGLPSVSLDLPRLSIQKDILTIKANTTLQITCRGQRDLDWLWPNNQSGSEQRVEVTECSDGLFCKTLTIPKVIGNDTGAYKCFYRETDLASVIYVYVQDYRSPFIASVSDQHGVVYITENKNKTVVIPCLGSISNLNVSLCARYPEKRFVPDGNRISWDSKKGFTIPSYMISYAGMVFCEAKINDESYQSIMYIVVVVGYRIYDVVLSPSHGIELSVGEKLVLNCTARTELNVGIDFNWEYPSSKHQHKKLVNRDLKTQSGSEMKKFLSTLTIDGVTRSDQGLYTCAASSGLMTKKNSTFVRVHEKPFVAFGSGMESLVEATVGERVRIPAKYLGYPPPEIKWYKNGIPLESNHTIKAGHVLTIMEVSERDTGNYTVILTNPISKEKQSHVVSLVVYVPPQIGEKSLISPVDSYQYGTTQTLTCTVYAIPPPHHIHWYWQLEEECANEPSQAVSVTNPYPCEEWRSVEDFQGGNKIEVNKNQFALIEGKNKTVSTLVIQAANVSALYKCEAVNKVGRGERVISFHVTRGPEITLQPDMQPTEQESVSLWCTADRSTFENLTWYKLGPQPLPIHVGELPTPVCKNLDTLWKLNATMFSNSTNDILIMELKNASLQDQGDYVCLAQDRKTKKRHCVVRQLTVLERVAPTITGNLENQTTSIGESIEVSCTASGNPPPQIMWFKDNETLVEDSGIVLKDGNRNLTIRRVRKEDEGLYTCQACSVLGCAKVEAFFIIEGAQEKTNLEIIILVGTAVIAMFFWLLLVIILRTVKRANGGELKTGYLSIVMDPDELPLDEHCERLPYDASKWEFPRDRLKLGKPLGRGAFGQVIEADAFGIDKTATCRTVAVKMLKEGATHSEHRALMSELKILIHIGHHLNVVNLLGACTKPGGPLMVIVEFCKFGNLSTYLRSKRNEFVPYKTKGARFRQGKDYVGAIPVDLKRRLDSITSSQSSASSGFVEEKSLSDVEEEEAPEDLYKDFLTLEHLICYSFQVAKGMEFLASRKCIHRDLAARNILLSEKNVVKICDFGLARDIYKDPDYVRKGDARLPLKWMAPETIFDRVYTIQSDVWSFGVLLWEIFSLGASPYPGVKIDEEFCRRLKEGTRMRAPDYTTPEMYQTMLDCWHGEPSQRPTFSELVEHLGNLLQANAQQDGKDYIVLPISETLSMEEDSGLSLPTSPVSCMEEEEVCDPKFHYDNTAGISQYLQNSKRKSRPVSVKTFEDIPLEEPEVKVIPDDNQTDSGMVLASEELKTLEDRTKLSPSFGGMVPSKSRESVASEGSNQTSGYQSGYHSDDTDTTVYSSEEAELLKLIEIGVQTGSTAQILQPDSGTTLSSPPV

Row | SMILES | pIC50 (KDR) | pIC50 (AXL)
1 | COc1cc2nccc(Oc3ccc(NC(=O)c4c(C)n(C)c(C)c(-c5ccco5)c4=O)cc3)c2nc1OC [Compound 164, N-[4-[(6,7-Dimethoxy-1,5-naphthyridin-4-yl)oxy]phenyl]-5-(furan-2-yl)-1,2,6-trimethyl-4-oxopyridine-3-carboxamide] | 6.00 to 6.52 | ≥ 7.00
2 | COc1cc2nccc(Oc3ccc(NC(=O)c4cnc(C)c(-c5cc(C)nn5C)c4O)cc3F)c2nc1OC [Compound 136, N-[4-[(6,7-Dimethoxy-1,5-naphthyridin-4-yl)oxy]-3-fluorophenyl]-5-(2,5-dimethylpyrazol-3-yl)-4-hydroxy-6-methylpyridine-3-carboxamide] | ≥ 7.00 | 6.52 to 7.00
3 | COc1cnc2c(Oc3ccc(NC(=O)c4cnc(C)c(-c5ccsc5)c4O)cc3F)ccnc2c1 [Compound 98, N-[3-Fluoro-4-[(7-methoxy-1,5-naphthyridin-4-yl)oxy]phenyl]-4-hydroxy-6-methyl-5-(3-thienyl)pyridine-3-carboxamide] | ≥ 7.00 | ≥ 7.00
4 | COc1cc2nccc(Oc3cc(F)c(NC(=O)c4c(C)n(C)c(C)c(-c5ccco5)c4=O)cc3F)c2nc1OC [Compound 163, N-[4-[(6,7-Dimethoxy-1,5-naphthyridin-4-yl)oxy]-2,5-difluorophenyl]-5-(furan-2-yl)-1,2,6-trimethyl-4-oxopyridine-3-carboxamide] | 6.00 to 6.52 | ≥ 7.00
5 | COc1cnc2c(Oc3ccc(NC(=O)c4cn(CCF)c(C)c(-c5ccoc5)c4=O)cc3F)ccnc2c1 [Compound 334, 1-(2-Fluoroethyl)-N-[3-fluoro-4-[(7-methoxy-1,5-naphthyridin-4-yl)oxy]phenyl]-5-(furan-3-yl)-6-methyl-4-oxopyridine-3-carboxamide] | 6.00 to 6.52 | ≥ 7.00
6 | COc1cc2nccc(Oc3ccc(NC(=O)c4c(C)nc(C)c(-c5ccsc5)c4O)cc3F)c2nc1OC [Compound 106] | ≥ 7.00 | ≥ 7.00
7 | COCc1nc(C)c(-c2cccs2)c(O)c1C(=O)Nc1ccc(Oc2ccnc3cc(OC)c(OC)nc23)c(F)c1 [Compound 115, N-[4-[(6,7-Dimethoxy-1,5-naphthyridin-4-yl)oxy]-3-fluorophenyl]-4-hydroxy-2-(methoxymethyl)-6-methyl-5-thiophen-2-ylpyridine-3-carboxamide] | ≥ 7.00 | ≥ 7.00
8 | COc1cc2nccc(Oc3ccc(NC(=O)c4cnc(C)c(-c5cncs5)c4O)cc3F)c2nc1OC [Compound 141, N-[4-[(6,7-Dimethoxy-1,5-naphthyridin-4-yl)oxy]-3-fluorophenyl]-4-hydroxy-6-methyl-5-(1,3-thiazol-5-yl)pyridine-3-carboxamide] | ≥ 7.00 | ≥ 7.00
9 | COc1cc2nccc(Oc3ccc(NC(=O)c4c(C)nc(C)c(-c5cc(C)cs5)c4O)cc3F)c2nc1OC [Compound 137, N-[4-[(6,7-Dimethoxy-1,5-naphthyridin-4-yl)oxy]-3-fluorophenyl]-4-hydroxy-2,6-dimethyl-5-(4-methylthiophen-2-yl)pyridine-3-carboxamide] | ≥ 7.00 | ≥ 7.00
10 | COc1cc2nccc(Oc3ccc(NC(=O)c4cnc(C)c(-c5cscn5)c4O)cc3F)c2nc1OC [Compound 142, N-[4-[(6,7-Dimethoxy-1,5-naphthyridin-4-yl)oxy]-3-fluorophenyl]-4-hydroxy-6-methyl-5-(1,3-thiazol-4-yl)pyridine-3-carboxamide] | ≥ 7.00 | ≥ 7.00
11 | COc1cc2nccc(Oc3ccc(NC(=O)c4c(C)nc(C)c(-c5ccc(C(C)C)o5)c4O)cc3F)c2nc1OC [Compound 148, N-[4-[(6,7-Dimethoxy-1,5-naphthyridin-4-yl)oxy]-3-fluorophenyl]-4-hydroxy-2,6-dimethyl-5-(5-propan-2-ylfuran-2-yl)pyridine-3-carboxamide] | ≥ 7.00 | ≥ 7.00
12 | COc1cnc2c(Oc3ccc(NC(=O)c4cn(CCF)c(C)c(-c5ccsc5)c4=O)cc3F)ccnc2c1 [Compound 330, 1-(2-Fluoroethyl)-N-[3-fluoro-4-[(7-methoxy-1,5-naphthyridin-4-yl)oxy]phenyl]-6-methyl-4-oxo-5-thiophen-3-ylpyridine-3-carboxamide] | 6.00 to 6.52 | ≥ 7.00
13 | COc1cc2nccc(Oc3ccc(NC(=O)c4cnc(C)c(-c5ccoc5)c4O)cc3F)c2nc1OC [Compound 95, N-[4-[(6,7-Dimethoxy-1,5-naphthyridin-4-yl)oxy]-3-fluoro-phenyl]-5-(3-furyl)-4-hydroxy-6-methyl-pyridine-3-carboxamide] | ≥ 7.00 | ≥ 7.00
14 | CCc1ccc(-c2c(C)nc(C)c(C(=O)Nc3ccc(Oc4ccnc5cc(OC)c(OC)nc45)c(F)c3)c2O)o1 [Compound 147, N-[4-[(6,7-Dimethoxy-1,5-naphthyridin-4-yl)oxy]-3-fluorophenyl]-5-(5-ethylfuran-2-yl)-4-hydroxy-2,6-dimethylpyridine-3-carboxamide] | ≥ 7.00 | ≥ 7.00
15 | COc1cc2nccc(Oc3ccc(NC(=O)c4cc(Br)c(C)n(-c5ccc(F)cn5)c4=O)cc3F)c2nc1OC [Compound 55, 5-Bromo-N-[4-[(6,7-dimethoxy-1,5-naphthyridin-4-yl)oxy]-3-fluorophenyl]-1-(5-fluoropyridin-2-yl)-6-methyl-2-oxopyridine-3-carboxamide] | 6.00 to 6.52 | ≥ 7.00
16 | COc1cc2nccc(Oc3ccc(NC(=O)c4cnc(C)c(-c5cc(C)cs5)c4O)cc3F)c2nc1OC [Compound 91, N-[4-[(6,7-Dimethoxy-1,5-naphthyridin-4-yl)oxy]-3-fluoro-phenyl]-4-hydroxy-6-methyl-5-(4-methyl-2-thienyl) pyridine-3-carboxamide] | ≥ 7.00 | ≥ 7.00
17 | COc1cnc2c(Oc3ccc(NC(=O)c4cnc(C)c(-c5ccc(C)o5)c4O)cc3F)ccnc2c1 [Compound 97, N-[3-Fluoro-4-[(7-methoxy-1,5-naphthyridin-4-yl)oxy]phenyl]-4-hydroxy-6-methyl-5-(5-methyl-2-furyl)pyridine-3-carboxamide] | ≥ 7.00 | ≥ 7.00
18 | COc1cnc2c(Oc3ccc(NC(=O)c4c(C)n(C)c(C)c(-c5cccs5)c4=O)cc3F)ccnc2c1 [Compound 166, N-[3-Fluoro-4-[(7-methoxy-1,5-naphthyridin-4-yl)oxy]phenyl]-1,2,6-trimethyl-4-oxo-5-thiophen-2-ylpyridine-3-carboxamide] | 6.00 to 6.52 | ≥ 7.00
19 | COc1cc2nccc(Oc3ccc(NC(=O)c4cnc(C)c(-c5ccc(C6CC6)o5)c4O)cc3F)c2nc1OC [Compound 155A, 5-(5-Cyclopropylfuran-2-yl)-N-[4-[(6,7-dimethoxy-1,5-naphthyridin-4-yl)oxy]-3-fluorophenyl]-4-hydroxy-6-methylpyridine-3-carboxamide hydrochloride] | ≥ 7.00 | ≥ 7.00
20 | COc1cc2nccc(Oc3ccc(NC(=O)c4c(C)n(C)c(C)c(-c5cccs5)c4=O)cc3)c2nc1OC [Compound 167, N-[4-[(6,7-Dimethoxy-1,5-naphthyridin-4-yl)oxy]phenyl]-1,2,6-trimethyl-4-oxo-5-thiophen-2-ylpyridine-3-carboxamide] | 6.00 to 6.52 | ≥ 7.00
21 | COc1cc2nccc(Oc3ccc(NC(=O)c4c(C)nc(C)c(-c5sccc5C)c4O)cc3F)c2nc1OC [Compound 139, N-[4-[(6,7-Dimethoxy-1,5-naphthyridin-4-yl)oxy]-3-fluorophenyl]-4-hydroxy-2,6-dimethyl-5-(3-methylthiophen-2-yl)pyridine-3-carboxamide] | ≥ 7.00 | ≥ 7.00
22 | COc1cc2nccc(Oc3ccc(NC(=O)c4cnc(C)c(-c5ccc(C)s5)c4O)cc3F)c2nc1OC [Compound 94, N-[4-[(6,7-Dimethoxy-1,5-naphthyridin-4-yl)oxy]-3-fluoro-phenyl]-4-hydroxy-6-methyl-5-(5-methyl-2-thienyl) pyridine-3-carboxamide] | ≥ 7.00 | ≥ 7.00
23 | COc1cc2nccc(Oc3ccc(NC(=O)c4c(C)ncc(-c5cccs5)c4O)cc3F)c2nc1OC [Compound 123, N-[4-[(6,7-Dimethoxy-1,5-naphthyridin-4-yl)oxy]-3-fluorophenyl]-4-hydroxy-2-methyl-5-thiophen-2-ylpyridine-3-carboxamide] | ≥ 7.00 | ≥ 7.00
